Data reported in BindingDB's records for doi:10.7270/Q2639NCQ (The Scripps Research Institute Molecular Screening Center, 2013).

Biological target: T1, Mitochondrial peptide methionine sulfoxide reductase (Bos taurus, UniProt P54149)
T1 sequence (P54149 whole entry): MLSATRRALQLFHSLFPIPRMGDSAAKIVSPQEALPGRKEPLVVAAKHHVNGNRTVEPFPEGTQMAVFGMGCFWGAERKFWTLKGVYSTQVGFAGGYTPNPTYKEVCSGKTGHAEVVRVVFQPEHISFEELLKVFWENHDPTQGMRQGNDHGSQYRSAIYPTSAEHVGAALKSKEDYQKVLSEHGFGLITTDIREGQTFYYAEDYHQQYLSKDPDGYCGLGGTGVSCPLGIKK

| Compound | IC50 |
| --- | --- |
| COc1ccc(/C=N/NC(=O)c2cc3cc(OC)c(OC)cc3[nH]2)cc1 | > 155 µM |
| O=[N+]([O-])c1cnc(Nc2ccc(Cl)cn2)c([N+](=O)[O-])c1 | > 155 µM |
| CC(=N)C(C#N)C(=O)CSc1nn(-c2ccc(Cl)cc2)c(=S)s1 (centres undefined) | > 155 µM |
| C#Cc1cccc(Nc2nc(NCCOC)nc3ccsc23)c1 [4-N-(3-ethynylphenyl)-2-N-(2-methoxyethyl)thieno[3,2-d]pyrimidine-2,4-diamine] | > 155 µM |
| COC(=O)COc1ccc2oc(=O)cc(-c3cc4ccccc4o3)c2c1 [MLS001167555] | > 155 µM |
| Nc1nnc(CC(=O)N/N=C/c2ccc(-c3ccccc3)o2)s1 | > 155 µM |
| Cc1nonc1C1CCCN1Cc1c[nH]nc1-c1ccc(-c2ccccc2)cc1 (centres undefined) [SMR000316348] | > 155 µM |
| CSc1nc2sc3c(c2c2nnnn12)CCCC3 [MLS000071273] | > 155 µM |
| Cc1ccc(-c2csc3nc(C)n(-n4c(C)ccc4C)c(=O)c23)o1 [SMR000061692] | > 155 µM |
| Cc1ccc(C)n1-n1c(C)nc2scc(-c3cccs3)c2c1=O [3-(2,5-dimethyl-1-pyrrolyl)-2-methyl-5-thiophen-2-yl-4-thieno[2,3-d]pyrimidinone] | > 155 µM |
| Cc1cccc(Nc2oc3cc(=O)ccc-3cc2C(N)=O)c1 [(2Z)-7-hydroxy-2-[(3-methylphenyl)imino]-2H-chromene-3-carboxamide] | > 155 µM |
| N#CCCSc1nc(N2CCOCC2)c2c(c1C#N)CCCC2 [3-(2-cyanoethylthio)-1-(4-morpholinyl)-5,6,7,8-tetrahydroisoquinoline-4-carbonitrile] | > 155 µM |
| CN(c1ccccc1)S(=O)(=O)c1ccc2[nH]c(O)nc2c1 [N-methyl-2-oxidanylidene-N-phenyl-1,3-dihydrobenzimidazole-5-sulfonamide] | > 155 µM |
| O=C(NC=NOCc1ccc(Cl)cc1Cl)NOCc1ncc(C(F)(F)F)cc1Cl [1-[[3-chloro-5-(trifluoromethyl)-2-pyridinyl]methoxy]-3-[[(2,4-dichlorophenyl)methoxyamino]methylidene]urea] | > 155 µM |
| Cc1c(O)ccc2c(-c3ccccc3)cc(=O)oc12 [7-hydroxy-8-methyl-4-phenyl-1-benzopyran-2-one] | > 155 µM |
| COC(=O)c1ccccc1NC(=S)NC(=O)C1CC1 [methyl 2-({[(cyclopropylcarbonyl)amino]carbothioyl}amino)benzoate] | > 155 µM |
| COc1cccc(/C=N/n2c(CO)nc3ccccc32)c1OC [[1-[(E)-(2,3-dimethoxyphenyl)methylideneamino]-2-benzimidazolyl]methanol] | > 155 µM |
| O=c1cnn(-c2ccccc2)c(-c2ccccc2)c1 [SMR000060054] | > 155 µM |
| CCN(CC)c1ccc(/C=N/NC(=O)CNC(=O)/C=C/c2ccco2)cc1 [MLS000912185] | > 155 µM |
| Cc1cc(OCC(=O)N2CCc3ccccc3C2)c2c(-c3ccccc3)cc(=O)oc2c1 [5-[2-(3,4-dihydro-2(1H)-isoquinolinyl)-2-oxoethoxy]-7-methyl-4-phenyl-2H-chromen-2-one] | > 155 µM |
| CCOc1ccc(N(C)S(=O)(=O)c2cc(-c3cc(C)no3)ccc2C(C)C)cc1 [N-(4-ethoxyphenyl)-N-methyl-5-(3-methyl-1,2-oxazol-5-yl)-2-propan-2-yl-benzenesulfonamide] | > 155 µM |
| CCOc1cc(S(=O)(=O)NC2CC2)c(OCC)cc1-n1cnnn1 [SMR000123810] | > 155 µM |
| CCOC(=O)c1c(NC(=O)COC(=O)/C=C/c2ccco2)sc2c1CC(C)(C)NC2(C)C [2-[[2-[(E)-3-(2-furanyl)-1-oxoprop-2-enoxy]-1-oxoethyl]amino]-5,5,7,7-tetramethyl-4,6-dihydrothieno[2,3-c]pyridine-3-carboxylic acid ethyl ester] | > 155 µM |
| C#Cc1cccc(Nc2nc(NCc3ccccc3OC)nc3ccsc23)c1 [MLS003123009] | > 155 µM |
| CNS(=O)(=O)c1cccc(C(=O)OCC(=O)c2cc3ccccc3o2)c1 [SMR000364126] | > 155 µM |
| c1cnn(-c2cncc(-n3cccn3)n2)c1 [2,6-bis(1-pyrazolyl)pyrazine] | > 155 µM |
| O=Cc1c(-c2ccccc2)nc2ccccn12 [2-phenyl-3-imidazo[1,2-a]pyridinecarboxaldehyde] | > 155 µM |
| Cc1nc2scc(-c3cccs3)c2c(=O)n1-n1cccc1 [MLS000113688] | > 155 µM |
| Cc1ccc(S(=O)(=O)NCCNc2ccc([N+](=O)[O-])cc2C(F)(F)F)cc1 [4-methyl-N-(2-{[4-nitro-2-(trifluoromethyl)phenyl]amino}ethyl)benzenesulfonamide] | > 155 µM |

More lines, now with the values ahead:

| IC50 | Compound |
| --- | --- |
| > 155 µM | Cc1ccc(NC(=O)C2CCCO2)cc1[N+](=O)[O-] (centres undefined) [SMR000197718] |
| > 155 µM | COc1ccccc1-c1[nH]nc2c1[C@H](C)CC[C@H]2C(C)C [(4R,7S)-3-(2-methoxyphenyl)-4-methyl-7-propan-2-yl-4,5,6,7-tetrahydro-1H-indazole] |
| 139 µM | CCOC(=O)C(=CC(C#N)C(=O)OCC)C(=N)N1CCN(c2ccc(OC)cc2)CC1 (centres undefined) |
| > 155 µM | N#Cc1c(NCCCO)nc(-c2ccco2)c2c1CCCC2 |
| > 155 µM | CC(Sc1ncc(C(F)(F)F)cc1Cl)C(=O)NC(N)=O (centres undefined) |
| > 155 µM | COc1cccc(C2=Nc3nnnn3C(c3cccc(OC)c3OC)C2)c1 (centres undefined) |
| > 155 µM | Cn1c2c(c(=O)n(C)c1=O)C(C(F)(F)F)(C(F)(F)F)NC(C1CCCCC1)=N2 [SMR000219726] |
| > 155 µM | O=C(c1ccccc1)c1coc2c1C(=O)c1ccccc1C2=O [3-benzoylbenzo[f]benzofuran-4,9-dione] |
| > 155 µM | COc1cccc2cc(-c3cc(=O)oc4ccc(O)cc34)oc12 [SMR000543646] |
| > 155 µM | O=C1c2ccccc2C(=O)c2cc(S(=O)(=O)Nc3ccccc3)ccc21 [MLS000585519] |
| > 155 µM | N#CC1C(=N)Oc2c(O)cc3ccccc3c2C1c1ccsc1 (centres undefined) [3-amino-5-hydroxy-1-(3-thiophenyl)-1H-benzo[f][1]benzopyran-2-carbonitrile] |
| > 155 µM | CCOC(=O)N/N=C1/c2ccccc2-c2nc3nonc3nc21 [SMR000305141] |
| 149 µM | COc1ccc(C=NNC(=O)C(C=Nc2nccc(C)n2)NC(=O)c2ccccc2)cc1 (centres undefined) [N-[(E)-3-[(2Z)-2-[(4-methoxyphenyl)methylidene]hydrazinyl]-1-[(4-methylpyrimidin-2-yl)amino]-3-oxidanylidene-prop-1-en-2-yl]benzamide] |
| > 155 µM | CCOC(=O)c1cc2c(ccc3ccccc32)oc1=O [3-oxo-2-benzo[f][1]benzopyrancarboxylic acid ethyl ester] |
| > 155 µM | Cc1ccc(/C=C/C(=O)Nc2nccs2)o1 [SMR000261703] |
| > 155 µM | CC(=O)N1N=C(c2ccncc2)OC1(Cc1ccccc1)Cc1ccccc1 |
| > 155 µM | Cc1ccc(Nc2[nH]nc(C)c2[N+](=O)[O-])c(C)c1 [MLS000700556] |
| > 155 µM | CCOc1ccc(N(C)S(=O)(=O)c2cc(-c3cc(C)no3)ccc2CC)cc1 [N-(4-ethoxyphenyl)-2-ethyl-N-methyl-5-(3-methyl-1,2-oxazol-5-yl)benzenesulfonamide] |
| > 155 µM | O=C1C(Cl)=C(NCCCN2CCOCC2)C(=O)N1CCc1ccccc1 [3-chloro-4-{[3-(4-morpholinyl)propyl]amino}-1-(2-phenylethyl)-1H-pyrrole-2,5-dione] |
| > 155 µM | Cc1nn2c(=O)cc(CSc3ccccc3NC(=O)c3ccccc3)nc2s1 [N-[2-[(2-methyl-5-oxo-[1,3,4]thiadiazolo[3,2-a]pyrimidin-7-yl)methylsulfanyl]phenyl]benzamide] |
